Consider 25 compounds from US6300499A, “α1-adrenergic receptor antagonists” (Societe de Conseils de Recherches et d'Applications …, priority 1998, dated 2001).

In the test the target is α1-adrenergic receptor. The test can be described thus: Test of the bond to the α1-adrenergic receptor (inhibition of [3H]prazosin bond to rat cerebral cortex). The test is classed as binding, rat (male Sprague Dawley). The note with it: [3H]prazosin 0.2 nM, rat cerebral cortex membranes, 30 min, 25° C., pH 7.7. As to the method:
The cerebral cortices of male Sprague Dawley rats are homogenized at 4° C. in Tris-HCl 50 mM pH=7.7 and centrifuged at 50,000 g for 30 minutes at 4° C. The pellets are again suspended in the same buffer and centrifuged again at 50,000 g for 30 minutes at 4° C.
The filters are rinsed three times with the same buffer at 0-4° C. and their radioactivity is tested by liquid scintillation spectrometry.
The specific bonds are obtained by subtracting the non-specific bonds (determined in the presence of 10 μM of phentolamine (Sigma Chemical Co. St. Louis Mo.)) from the total bonds. The data relative to the bonds is analyzed by computer assisted iterative non-linear regression analysis, using the Ligand program (Munson, P. J., Rodbard, D. Anal. Biochem. 107:220 (1980)).
With `COc1ccccc1N1CCN(CCCNC(=O)C(c2ccccc2)C2CCCCC2)CC1` (racemic) [Compound 18, (±)-α-cyclohexyl-N-[3-{4-(2-methoxyphenyl)-1-piperazinyl}-propyl]-benzeneacetamide], the Ki – broadly, a dissociation constant, usually derived from enzyme kinetics or from competition with a known ligand – stood at 55 nM.

Turning to `COc1ccccc1N1CCN(CCCNC(=O)C(O)c2ccccc2)CC1` (racemic) [Compound 19, (±)-α-hydroxy-N-[3-{4-(2-methoxyphenyl)-1-piperazinyl}-propyl]-benzeneacetamide], the Ki was determined as 60 nM.

With `CCCCC(O)(C(=O)NCCCN1CCN(c2cc(C)ccc2C)CC1)c1ccccc1` (racemic) [Compound 28, (±)-N-[3-{4-(2,5-dimethylphenyl)-1-piperazinyl}-propyl]-2-hydroxy-2-phenyl-hexanamide], the Ki worked out at 36 nM.

On to `Cc1ccc(C)c(N2CCN(CCCNC(=O)C(C)(O)c3ccccc3Cl)CC2)c1` (racemic) [Compound 29, (±)-2-chloro-N-[3-{4-(2,5-dimethylphenyl)-1-piperazinyl}-propyl]-α-hydroxy-α-methyl-benzeneacetamide], for which the affinity corresponds to a Ki of 67 nM.

With `Cc1ccc(C)c(N2CCN(CCCNC(=O)C(C)(O)c3ccc(Cl)cc3)CC2)c1` (racemic) [Compound 30, (±)-4-chloro-N-[3-{4-(2,5-dimethylphenyl)-1-piperazinyl}-propyl]-α-hydroxy-α-methyl-benzeneacetamide], the Ki came out at 44 nM.

In turn, `Cc1ccc(C)c(N2CCN(CCCNC(=O)C(C)(O)c3cccc(Cl)c3)CC2)c1` (racemic) [Compound 31, (±)-3-chloro-N-[3-{4-(2,5-dimethylphenyl)-1-piperazinyl}-propyl]-α-hydroxy-α-methyl-benzeneacetamide] showed a Ki of 43 nM.

In turn, `Cc1ccc(C)c(N2CCN(CCCNC(=O)C(N)c3ccccc3)CC2)c1` (racemic) [Compound 32, (±)-a-amino-N-[3-{4-(2,5-dimethylphenyl)-1-piperazinyl}-propyl]-benzeneacetamide] showed a Ki of 51 nM.

`Cc1ccc(C)c(N2CCN(CCCNC(=O)C(NS(C)(=O)=O)c3ccccc3)CC2)c1` (racemic) [Compound 33, (±)-N-[3-{4-(2,5-dimethylphenyl)-1-piperazinyl}-propyl]-α-(methylsulphonylamino)-benzeneacetamide]: the Ki was 40 nM.

As to `COc1ccc(CC(C)(O)C(=O)NCCCN2CCN(c3cc(C)ccc3C)CC2)cc1` (racemic) [Compound 34, (±)-N-[3-{4-(2,5-dimethylphenyl)-1-piperazinyl}-propyl]-2-hydroxy-2-methyl-4-methoxy-benzenepropionamide], affinity was put at a Ki of 45 nM.

Compound `CCC(O)c1ccccc1N1CCN(CCCNC(=O)C(c2ccccc2)c2ccccc2)CC1` (racemic) [Compound 36, (±)-N-[3-{4-(2-(1-hydroxypropyl)-phenyl)-1-piperazinyl}-propyl]-α-phenyl-benzeneacetamide] had a Ki of 170 nM.

In the case of `COc1ccc(C(C)(O)C(=O)NCCCN2CCN(c3cc(C)ccc3C)CC2)cc1` (racemic) [Compound 40, (±)-N-[3-{4-(2,5-dimethylphenyl)-1-piperazinyl}-propyl]-α-hydroxy-α-methyl-4-methoxy-benzeneacetamide], the Ki is 38 nM.

`Cc1ccc(C(C)(O)C(=O)NCCCN2CCN(c3cc(C)ccc3C)CC2)cc1` (racemic) [Compound 41, (±)-N-[3-{4-(2,5-dimethylphenyl)-1-piperazinyl}-propyl]-α-hydroxy-α-methyl-4-methyl-benzeneacetamide] yielded an inhibition constant (Ki) of 27 nM.

`Cc1ccc(C)c(N2CCN(CCCNC(=O)C(C)(O)c3ccc4ccccc4c3)CC2)c1` (racemic) [Compound 43, (±)-N-[3-{4-(2,5-dimethylphenyl)-1-piperazinyl}-propyl]-α-hydroxy-α-methyl-2-naphthaleneacetamide]: the inhibition constant (Ki) came to 29 nM.

Compound `Cc1ccc(C)c(N2CCN(CCCNC(=O)C(C)(O)c3cccc(-c4ccccc4)c3)CC2)c1` (racemic) [Compound 44, (±)-N-[3-{4-(2,5-dimethylphenyl)-1-piperazinyl}-propyl]-α-hydroxy-α-methyl-1,1'-biphenyl-3-acetamide] yielded a Ki of 73 nM.

On to `Cc1ccc(C)c(N2CCN(CCCNC(=O)C(NC(=O)Cc3ccccc3)c3ccccc3)CC2)c1` (racemic) [Compound 49, (±)-N-[3-{4-(2,5-dimethylphenyl)-1-piperazinyl}-propyl]-α-benzylcarbonylamino-benzeneacetamide], for which affinity was put at a Ki of 50 nM.

`COC(C)(C(=O)NCCCN1CCN(c2cc(C)ccc2C)CC1)c1ccccc1` (racemic) [Compound 51, (±)-N-[3-{4-(2,5-dimethylphenyl)-1-piperazinyl}-propyl]-α-methoxy-α-methyl-benzeneacetamide] displayed a Ki of 110 nM.

`Cc1ccc(C)c(N2CCN(CCCNC(=O)C(C)(OCc3ccccc3)c3ccccc3)CC2)c1` (racemic) [Compound 52, (±)-N-[3-{4-(2,5-dimethylphenyl)-1-piperazinyl}-propyl]-α-benzyloxy-α-methyl-benzeneacetamide] yielded a Ki of 51 nM.

On to `Cc1ccc(C)c(N2CCN(CCCNC(=O)C(C)(C)O)CC2)c1` (racemic) [Compound 54, (±)-N-[3-{4-(2,5-dimethylphenyl)-1-piperazinyl}-propyl]-2-hydroxy-2-methyl-propionamide], for which the affinity corresponds to a Ki of 280 nM.

`O=C(NCCCN1CCN(c2ccccc2C(O)C2CC2)CC1)C(c1ccccc1)c1ccccc1` (racemic) [Compound 55, (±)-N-[3-{4-(2-(cyclopropylhydroxymethyl)-phenyl)-1-piperazinyl}-propyl]-α-phenyl-benzeneacetamide] displayed a Ki of 300 nM.

As for `CCCc1ccccc1N1CCN(CCCNC(=O)C(O)(c2ccccc2)c2ccccc2)CC1` (racemic) [Compound 56, (±)-N-[3-{4-(2-(propyl)-phenyl)-1-piperazinyl}-propyl]-α-hydroxy-α-phenyl-benzeneacetamide], the Ki was determined as 25 nM.

As for `Cc1cccc(N2CCN(CCCNC(=O)C(O)(c3ccccc3)c3ccccc3)CC2)c1` [Compound 1, α-hydroxy-N-[3-{4-(3-methylphenyl)-1-piperazinyl}-propyl]-α-phenylbenzeneacetamide], the affinity corresponds to a Ki of 51 nM.

In turn, `Cc1ccc(N2CCN(CCCNC(=O)C(O)(c3ccccc3)c3ccccc3)CC2)cc1` [Compound 3, α-hydroxy-N-[3-{4-(4-methylphenyl)-1-piperazinyl}-propyl]-α-phenyl-benzeneacetamide] showed a Ki of 60 nM.

`Cc1cccc(N2CCN(CCCNC(=O)C(O)(c3ccccc3)c3ccccc3)CC2)c1C` [Compound 4, N-[3-{4-(2,3-dimethylphenyl)-1-piperazinyl}-propyl]-α-hydroxy-α-phenyl-benzeneacetamide] displayed a Ki of 66 nM.

`Cc1ccc(N2CCN(CCCNC(=O)C(O)(c3ccccc3)c3ccccc3)CC2)c(C)c1` [Compound 5, N-[3-{4-(2,4-dimethylphenyl)-1-piperazinyl}-propyl]-α-hydroxy-α-phenyl-benzeneacetamide] gave a Ki of 60 nM.

Compound `Cc1cccc(C)c1N1CCN(CCCNC(=O)C(O)(c2ccccc2)c2ccccc2)CC1` [Compound 6, N-[3-{4-(2,6-dimethylphenyl)-1-piperazinyl}-propyl]-a-hydroxy-a-phenyl-benzeneacetamide] had a Ki of 480 nM.
